Measured values taken from US9718794B2, “Crystalline forms of tyrosine kinase inhibitors and their salts” (Purdue Pharma L.P., priority 2013, dated 2017).

Key:
[1] = target: T1, TrkA (human full length) (Homo sapiens, UniProt P04629); experiment: PathHunter whole cell functional assay, NGF stimulated TrkA activation (U2OS); format: cell-based; settings: U2OS PathHunter cells, mean of triplicate; read-out: cellular IC50, NGF stimulated TrkA activation
T1 construct: expressed recombinantly on the intracellular C-terminus of TrkA (human full length); host or cells: U2OS
Description: Compound inhibition in a live, whole cell based functional assay: There are several methods to measure whole length TrkA activation stimulated by its natural ligand or agonist NGF in live cells. For example, the PathHunter Profiling services offered by DiscoveRx (Fremont, Calif.). The PathHunter technology is an adaptation of enzyme fragment complementation that provides a novel, generic functional cell-based assay format for detecting protein-protein interaction. In this cell-based assay approach, with U2OS cell background, a small peptide epitope (PK) is expressed recombinantly on the intracellular C-terminus of TrkA (human full length). This is co-expressed with a larger sequence, termed enzyme acceptor (EA) that is attached to a cytoplasmic protein SHC1 which will interact with TrkA intracellularly. NGF induced activation of TrkA receptor causes either homo- or hetero-dimerization of TrkA resulting in cross-phosphorylation. The SHC1-EA fusion protein then binds the phosphorylated TrkA receptor forcing complementation of the PK and EA fragment. This interaction generates an active beta-galactosidase enzyme, which is detected using a chemiluminescent substrate.

[2] = Rat pharmacokinetics (IV and PO, plasma); format: in vivo; settings: male, CD IGS, PO 100 mg/kg, mean
Protocol: Rat Pharmacokinetics. Compound I was dosed to nonfasted male CD IGS rats (weighting 180-250 g, Charles River Laboratories) by single intravenous (IV, n=3/group) or oral gavage (PO, n=4/group, including control rat group for drug-free blood and brain collection) administration at a nominal dose levels of 3 mg/kg (IV) or 5 mg/kg (IV) and 10, 50, 100 mg/kg (PO) respectively. Compound was formulated in either DMSO/Solutol® HS 15/phosphate buffered saline, pH 7.4 (PBS) for both IV and PO dosing, or 10% (w/v) Povidone K12 in water for IV dosing or 10% (w/v) Povidone K25 in water for PO dosing, or 18% (w/v) CrosPovidone in water for PO dosing. An intravenous profile was obtained by taking serial or terminal blood samples at 3, 10, 30, 60, 120, 240, 360, 1440 min post dose. An oral profile was obtained by taking serial or terminal blood samples at 10, 30, 60, 120, 240, 360, 480, 1440 min post dose.
Plasma Sample Collection from Rats. Animals were sedated under general inhalant anesthesia (3% isoflurane) for blood collection by cardiac puncture. […]
Plasma and brain samples were subjected to quantitative analysis by LC-MS/MS using compound-specific mass transitions. […] The concentrations of the test compound in brain (ng/g brain tissue) and in plasma (ng/mL) as well as the ratio of the brain concentration and the plasma concentration at each time point were determined and reported.

[3] = system: CFA-induced inflammatory pain; experiment: Rat CFA-induced inflammatory pain model; format: in vivo; settings: 50 μL of 1 mM s.c. into the paw 3 hours after CFA
Protocol: Rat CFA-induced Inflammatory Pain Model. Hyperalgesia was induced by subcutaneously injecting 50 μL of CFA (Sigma-Aldrich, St. Louis, Mo., USA) into the plantar surface of the left hind paw of the rats using a 30-gauge hypodermic needle under sevoflurane anesthesia. The classical signs of inflammation, including edema and redness, for up the last day of tests were recorded. To assess the effect of test article on CFA-induced inflammatory pain, the rats were anesthetized with sevoflurane 3 hours after CFA injection and then injected 50 μL of either 1 mM test article (n=6) or Saline (n=4) subcutaneously (S.C.) into the same site as the CFA injection, using a 30-gauge hypodermic needle under sevoflurane anesthesia, according to published method (Ueda K., et al, J Pharmacol. Sci., 2010; 112(4):438-43). Paw withdrawal latencies (thermal hyperalgesia) are measured before and at […] 2, 4, and 7 days after CFA injection. Mechanical thresholds were also measured in the same way with either Formula 1 compound (n=6) or Saline (n=4) at similar different time points (for example, 1, 3 hour and 3 days). The noxious heat and mechanical thresholds were separately measured in each group of rats. The threshold was measured 3-5 times in each rat and then averaged.

[4] = system: CCI neuropathic pain (mechanical allodynia); experiment: Chronic constriction injury (CCI) model of neuropathic pain in rat; format: in vivo; settings: for observed side effects in dosed CCI-rats: single oral dose
Description: Chronic Constriction Injury (CCI) Model of Neuropathic Pain in Rat. The CCI model is one of the most commonly used mono-neuropathic pain model firstly described in details by Bennett and Xie (Bennett CJ, Xie YK. Pain. 1988;33(1):87-107). It mimics important clinical chronic pain symptoms such as mechanical allodynia and thermal hyperalgesia, Chronic constriction injury of the sciatic nerve was produced by tying four loose ligatures around the left sciatic nerve according to the method of Bennett and. Xie. […] Calibrated von Frey filaments were used to determine the lowest mechanical (tactile) threshold required to evoke a brisk paw withdrawal reflex in the rat hindpaws. Rats were allowed to acclimatize in wire mesh cages for 15-20 min prior to von Frey testing. Assessment of paw withdrawal thresholds (PWTs) using von Frey filaments was undertaken prior to CCI-surgery (pre-surgery baseline on day 0). Before the drug dosing on day 14, the pre-dose baseline was recorded for each rat. […] Drug-naïve CCI-rats (n=4 - 6 per group) were used. The oral (PO) gavage vehicle was either 10% (w/v) Povidone K25 in water for PO dosing, or 18% (w/v) CrosPovidone in water for PO dosing, or 0.5% CMC-Na/0.1% Tween 80in distilled water for PO dosing. The positive control gabapentin was dissolved in the vehicle and orally given at 100 mg/kg (by oral gavage). Test article was dissolved or suspended in the vehicle and orally given at 25, 50, 100 and 150 mg/kg. Each CCI-rat was administered a single oral dose of test article, gabapentin or vehicle control, 2 hours before assessment of PWT.

[5] = system: SNL neuropathic pain (mechanical allodynia); experiment: Spinal nerve ligation (SNL) mono-neuropathic pain model in rat; format: in vivo; settings: SNL rats, oral administration
Protocol: Spinal Nerve Ligation (SNL) Mono-Neuropathic Pain Model in Rat. The surgical procedure will be performed according to the method firstly described by Kim and Chung (Kim SH, Chung JM. Pain. 1992;50(3):355-63.). This procedure will result in tactile allodynia in the left hindpaw. […] The dose-reverse anti-allodynia effects of test compound: on day 14 after surgery, rats were treated with test article at one of four doses, vehicle or positive control by oral gavage, and PWT was determined by calibrated von Frey filaments at time points of 0 (right before the drug dosing, Pre-Dose Baseline), 0.5, 1, 2, 4 and 6 hr. The anti-allodynia effects of repeated administration of test article: Administration of test article was started on day 7 after surgery, once a day for 7 days. PWT was determined by calibrated von Frey filaments, 2 hour after test article dosing each day. After 7 days dosing, the measurement were continued, every other day without compound dosing for another 7 days. PWT was determined at the time points as given above.

[6] = Accelerated stability test (XRPD and Raman); format: physicochemical; settings: 1 week
Protocol: X-ray Powder Diffraction (XRPD). Approximately 2 mg of sample was gently compressed on the XRPD zero back ground single obliquely cut silica sample holder. The sample was then loaded into a D/MAX 2200 X-ray powder diffractometer (Rigaku) or a Philips X-Pert MPD diffractometer and analyzed using the following experimental conditions (Tube anode: Cu; Generator tension: 40 kV; Tube current: 40 mA; Wavelength alphal: 1.54056 Å; Wavelength alpha2: 1.5444 Å; Start angle [2 theta]: 5; End angle [2 theta]: 50; and Continuous scan). For suspected novel forms a slightly slower scan speed was used over a range of 4-40°2θ.
Raman spectroscopy. Samples were analyzed by a Nicolet Almega XR Dispersive Raman Microscope for its Raman spectrum using the following conditions (Exposure Time: 1.0 s; Acquisition No: 10; Pinhole Size: 25, 50 or 100 μm; Wavelength range: 2000˜300 cm^−1 (single grating); Laser: He-Ne 780 nm 100% power; Objective: 20×/0.40 or 50×/0.75 (magnifier/numerical aperture number)). Then the measured Raman spectra were corrected by baseline subtraction using the software OMNIC™v7.3.

T1 sequence (P04629 33-796): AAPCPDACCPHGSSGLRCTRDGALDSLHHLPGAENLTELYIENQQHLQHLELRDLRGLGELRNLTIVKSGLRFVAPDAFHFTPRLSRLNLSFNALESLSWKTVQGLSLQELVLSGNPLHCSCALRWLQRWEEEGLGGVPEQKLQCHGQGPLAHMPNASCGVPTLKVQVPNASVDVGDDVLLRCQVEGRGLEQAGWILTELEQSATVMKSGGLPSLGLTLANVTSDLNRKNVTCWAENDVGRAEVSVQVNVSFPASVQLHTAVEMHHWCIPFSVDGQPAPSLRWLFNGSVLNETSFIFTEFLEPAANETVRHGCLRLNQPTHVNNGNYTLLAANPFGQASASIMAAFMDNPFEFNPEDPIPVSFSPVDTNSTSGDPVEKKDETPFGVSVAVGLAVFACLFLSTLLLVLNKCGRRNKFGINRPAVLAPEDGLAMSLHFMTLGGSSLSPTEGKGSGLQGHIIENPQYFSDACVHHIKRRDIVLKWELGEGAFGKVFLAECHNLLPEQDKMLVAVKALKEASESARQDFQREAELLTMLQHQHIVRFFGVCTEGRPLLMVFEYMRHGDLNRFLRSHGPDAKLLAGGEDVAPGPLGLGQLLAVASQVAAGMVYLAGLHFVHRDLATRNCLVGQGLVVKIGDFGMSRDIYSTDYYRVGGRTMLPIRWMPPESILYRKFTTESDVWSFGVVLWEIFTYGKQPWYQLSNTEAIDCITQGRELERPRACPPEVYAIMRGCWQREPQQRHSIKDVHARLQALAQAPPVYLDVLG

SMILES | IC50 [1] | bioavailability [2] | analgesic effect (FIG. 1) [3] | effect on mechanical allodynia (FIG. 2) ([4]; CCI rats, single oral dose 25, 50, 100 and 150 mg/kg, PWT 2 hours after dosing) | observed side effects in dosed CCI-rats [4] | effect on mechanical allodynia [5] | stability by XRPD and Raman ([6]; 40° C./75% RH) | stability by XRPD and Raman ([6]; 80° C.)
O=C(O)c1ccc(Nc2cc(N3CCN(C4CCCCC4)CC3)c3noc4c3c2C(=O)c2ccccc2-4)cc1 [Compound C] | ~50 nM |  |  |  |  |  |  | 
O=C([O-])c1ccc(Nc2cc(N3CCN(C4CCCCC4)CC3)c3noc4c3c2C(=O)c2ccccc2-4)cc1.[Na+] [Compound I, Sodium 4-((3-(4-cyclohexylpiperazin-1-yl)-6-oxo-6H-anthra[1,9-cd]isoxazol-5-yl)amino)benzoate] |  | ~100% | efficacious in relieving the pain | significantly reduced mechanical allodynia | no such effect or other abnormality was observed | significantly reduced mechanical allodynia | no instability | no instability
NCC1(CC(=O)O)CCCCC1 [gabapentin, reference compound] |  |  |  |  | drowsiness or motor incoordination |  |  | 
